In the test the target is human recombinant renin (Homo sapiens (Human), UniProt P00797). The test is described as follows: human renin activity inhibition (SensoLyte 520 Renin Assay Kit Fluorimetric). In kind it is biochemical. Conditions: 30 min preincubation at 37° C., fluorescence at 530 nm after 15 min at 37° C., read-out: IC50 (nM), inhibitory effect on human renin activity. The protocol: The exemplary compounds of the disclosure were tested for their inhibitory effects on human renin activity, using a commercially available renin assay kit (SensoLyte® 520 Renin Assay Kit Fluorimetric), following the manufacture's manual.
Briefly, human recombinant renin (from the kit) was incubated with the compound of the disclosure or buffer for 30 min at 37° C. before substrate addition. Fluorescence intensity was measured at 530 nm after an incubation of 15 min at 37° C. Data was analyzed by Prism and fitted into a sigmodal curve for IC50 calculation.

Chain of human recombinant renin (P00797 67-406): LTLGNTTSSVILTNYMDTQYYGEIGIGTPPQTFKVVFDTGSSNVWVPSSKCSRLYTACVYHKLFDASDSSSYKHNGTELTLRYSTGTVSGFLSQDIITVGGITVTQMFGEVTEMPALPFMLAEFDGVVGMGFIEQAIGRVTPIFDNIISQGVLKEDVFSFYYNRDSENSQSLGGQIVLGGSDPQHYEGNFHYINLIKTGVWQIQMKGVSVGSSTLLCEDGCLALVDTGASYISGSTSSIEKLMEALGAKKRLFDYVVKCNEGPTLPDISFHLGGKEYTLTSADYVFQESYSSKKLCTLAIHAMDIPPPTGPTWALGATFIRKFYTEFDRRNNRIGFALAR

As a reminder, the IC50 is the midpoint of a concentration-inhibition curve. In the case of `CO[C@H]1C[C@H](Nc2cc(C3CC3)cnc2C(=O)N(CC2CC2)[C@@H]2CNCC(c3nnco3)C2)C1` (stereo in doubt) [Compound 44, (3S)—{N-cyclopropylmethyl, N-{5-cyclopropyl-3-[3-(trans-methoxy)cyclobutyl]amino}pyridine-2-carbonyl}amino-(5R)-(1,3,4-oxadiazol-2-yl)-piperidine], the IC50 is less than 10 nM.

Turning to `CO[C@H]1C[C@H](Nc2cc(C3CC3)cnc2C(=O)N(CC(C)C)[C@@H]2CNC[C@H](CO)C2)C1` [Compound 35, (3S)—{N-(2-methylpropyl), N-{5-cyclopropyl-3-[3-(trans-methoxy)cyclobutyl]amino}pyridine-2-carbonyl}amino-(5R)-hydroxymethyl-piperidine], the IC50 was less than 20 nM.

On to `CO[C@H]1C[C@H](Nc2cc(C3CC3)cnc2C(=O)N(CC(C)C)C2CNCC(C(=O)N3CCOC[C@H]3C)C2)C1` (stereo partly drawn) [Compound 14, (3S)—{N-(2-methylpropyl), N-{5-cyclopropyl-3-[3-(trans-methoxy)cyclobutyl]amino}pyridine-2-carbonyl}amino-(5R)-[(3R)-methylmorpholine-N-carbonyl]-piperidine], for which the IC50 amounted to 1.2 nM.

For the molecule `CO[C@H]1C[C@H](Nc2cc(C3CC3)cnc2C(=O)N(CC(C)C)[C@@H]2CNC[C@H](c3nnco3)C2)C1` [Compound 40, (3S)—{N-(2-methylpropyl), N-{5-cyclopropyl-3-[3-(trans-methoxy)cyclobutyl]amino}pyridine-2-carbonyl}amino-(5R)-(1,3,4-oxadiazol-2-yl)-piperidine], the IC50 is less than 10 nM.

As to `CO[C@H]1C[C@H](Nc2nc(C(C)(C)C)ncc2C(=O)N(CC(C)C)C2CNCC(C(=O)N3CCOCC3)C2)C1` (stereo partly drawn) [Compound 17, (3S)—{N-(2-methylpropyl), N-{2-tert-butyl-3-[3-(trans-methoxy)cyclobutyl]amino}pyrimidine-5-carbonyl}amino-(5R)-(morpholine-N-carbonyl)-piperidine], the IC50 is 1.5 nM.

Turning to `CC(C)CN(C(=O)c1ncc(C2CC2)cc1NC1CCC1)C1CNCC(C(=O)N2CCOCC2)C1` [Compound 20, (3S)—[N-(2-methylpropyl), N-(5-cyclopropyl-3-cyclobutylamino)pyridine-2-carbonyl]amino-(5R)-(morpholine-N-carbonyl)-piperidine], the IC50 is 1.9 nM.

For the molecule `CO[C@H]1C[C@H](Nc2cccnc2C(=O)N(CC(C)C)[C@@H]2CNCC(c3nnc(C4CC4)o3)C2)C1` (stereo partly drawn) [Compound 31, (3S)—{N-(2-methylpropyl), N-[3-(3-trans-methoxy)cyclobutyl]amino-pyridine-2-carbonyl}amino-(5R)-(5-cyclopropyl-1,3,4-oxadiazol-2-yl)-piperidine], the IC50 is less than 10 nM.

Take `CO[C@H]1C[C@H](Nc2cc(C3CC3)cnc2C(=O)N(CC(C)C)C2CNC[C@H](c3nnc(C)o3)C2)C1` (stereo partly drawn) [Compound 22, (3S)—{N-(2-methylpropyl), N-{5-cyclopropyl-3-[3-(trans-methoxy)cyclobutyl]amino}pyridine-2-carbonyl}amino-(5R)-(5-methyl-1,3,4-oxadiazol-2-yl)-piperidine]: the IC50 was determined as 1.3 nM.

As for `CC(C)CN(C(=O)c1ncc(C2CC2)cc1NC1COC1)[C@H]1CCCNC1` [Compound 36, (3S)—{N-(2-methylpropyl), N-[5-cyclopropyl-3-(oxetan-3-yl)amino]pyridine-2-carbonyl}amino-piperidine], the IC50 was less than 50 nM.

In the case of `[2H]C([2H])([2H])O[C@H]1C[C@H](Nc2cc(C3CC3)cnc2C(=O)N(CC(C)C)[C@@H]2CNC[C@H](c3nnco3)C2)C1` [Compound 45, (3S)—{N-(2-methylpropyl), N-{5-cyclopropyl-3-[3-(trans-methoxy-d3)cyclobutyl]amino}pyridine-2-carbonyl}amino-(5R)-(1,3,4-oxadiazol-2-yl)-piperidine], the IC50 is less than 10 nM.

As for `CO[C@H]1C[C@H](Nc2cc(C3CC3)cnc2C(=O)N(CC(C)C)[C@@H]2CNCC(c3nnc(C4COC4)o3)C2)C1` (stereo in doubt) [Compound 34, (3S)—{N-(2-methylpropyl), N-{5-cyclopropyl-3-[3-(trans-methoxy)cyclobutyl]amino}pyridine-2-carbonyl}amino-(5R)-[5-(oxetan-3-yl)-1,3,4-oxadiazol-2-yl]-piperidine], the IC50 was less than 10 nM.

For `CC(C)CN(C(=O)c1ncc(C2CC2)cc1NC1COC1)[C@@H]1CNC[C@H](c2ncon2)C1` [Compound 42, (3S)—{N-(2-methylpropyl), N-[5-cyclopropyl-3-(oxetan-3-yl)amino]pyridine-2-carbonyl}amino-(5R)-(1,2,4-oxadiazol-3-yl)-piperidine], the IC50 was less than 30 nM.

As for `Cc1nnc(C2CNC[C@@H](N(CC(C)C)C(=O)c3ncc(C4CC4)cc3NC3COC3)C2)o1` (stereo in doubt) [Compound 37, (3S)—{N-(2-methylpropyl), N-[5-cyclopropyl-3-(oxetan-3-yl)amino]pyridine-2-carbonyl}amino-(5R)-(5-methyl-1,3,4-oxadiazol-2-yl)-piperidine], the IC50 is less than 20 nM.

As for `CO[C@H]1C[C@H](Nc2cc(C3CC3)cnc2C(=O)N(CC2CC2)[C@@H]2CNC[C@H](c3nnc(C)o3)C2)C1` [Compound 41], the IC50 was less than 10 nM.

On to `CO[C@H]1C[C@H](Nc2cc(C3CC3)cnc2C(=O)N(CC(C)C)C2CNCC(C(=O)N3CCC(F)(F)C3)C2)C1` (stereo partly drawn) [Compound 11, (3S)—{N-(2-methylpropyl), N-{5-cyclopropyl-3-[3-(trans-methoxy)cyclobutyl]amino}pyridine-2-carbonyl}amino-(5R)-(3,3-difluoropyrrolidine-N-carbonyl)-piperidine], for which the IC50 was 1.2 nM.

`CO[C@H]1C[C@H](Nc2cc(C3CC3)cnc2C(=O)N(CC(C)C)[C@@H]2CNC[C@H](C(=O)N3CC(F)C3)C2)C1` [Compound 10, (3S)—{N-(2-methylpropyl), N-{5-cyclopropyl-3-[3-(trans-methoxy)cyclobutyl]amino}pyridine-2-carbonyl}amino-(5R)-(3-fluoroazetidine-N-carbonyl)-piperidine]: the IC50 is 1.8 nM.

Consider `CO[C@H]1C[C@H](Nc2cc(C3CC3)cnc2C(=O)N(CC(C)C)[C@@H]2CNC[C@H](c3nc(C)no3)C2)C1` [Compound 29, (3S)—{N-(2-methylpropyl), N-{5-cyclopropyl-3-[3-(trans-methoxy)cyclobutyl]amino}pyridine-2-carbonyl}amino-(5R)-(3-methyl-1,2,4-oxadiazol-5-yl)-piperidine], for which the IC50 was less than 10 nM.

In the case of `Cc1noc(C2CNC[C@@H](N(CC(C)C)C(=O)c3ncc(C4CC4)cc3NC3COC3)C2)n1` (stereo in doubt) [Compound 38, (3S)—{N-(2-methylpropyl), N-[5-cyclopropyl-3-(oxetan-3-yl)amino]pyridine-2-carbonyl}amino-(5R)-(3-methyl-1,2,4-oxadiazol-5-yl)-piperidine], the IC50 is less than 50 nM.

As to `CC(C)CN(C(=O)c1ncc(C2CC2)cc1NC1CC1)C1CNCC(C(=O)N2CCOC[C@@H]2C)C1` (stereo partly drawn) [Compound 21, (3S)—[N-(2-methylpropyl), N-(5-cyclopropyl-3-cyclopropylamino)pyridine-2-carbonyl]amino-(5R)-[(3S)-methylmorpholine-N-carbonyl]-piperidine], the IC50 turned out to be 1.4 nM.

Consider `CC(C)CN(C(=O)c1ncc(C2CC2)cc1NC1COC1)[C@@H]1CNCC(c2nnc(C3CC3)o2)C1` (stereo partly drawn) [Compound 32, (3S)—{N-(2-methylpropyl), N-[5-cyclopropyl-3-(oxetan-3-yl)amino]pyridine-2-carbonyl}amino-(5R)-(5-cyclopropyl-1,3,4-oxadiazol-2-yl)-piperidine], for which the IC50 is less than 10 nM.

Consider `CO[C@H]1C[C@H](Nc2cc(C3CC3)cnc2C(=O)N(CC(C)C)[C@@H]2CNC[C@H](c3ncon3)C2)C1` [Compound 39, (3S)—{N-(2-methylpropyl), N-{5-cyclopropyl-3-[3-(trans-methoxy)cyclobutyl]amino}pyridine-2-carbonyl}amino-(5R)-(1,2,4-oxadiazol-3-yl)-piperidine], for which the IC50 was less than 10 nM.

`CC[C@H]1COCCN1C(=O)[C@H]1CNC[C@@H](N(CC(C)C)C(=O)c2ncc(C3CC3)cc2N[C@H]2C[C@H](OC)C2)C1` [Compound 27, (3S)—{N-(2-methylpropyl), N-{5-cyclopropyl-3-[3-(trans-methoxy)cyclobutyl]amino}pyridine-2-carbonyl}amino-(5R)-[(3S)-ethylmorpholine-N-carbonyl]-piperidine]: the IC50 is less than 250 nM.

For the molecule `CO[C@H]1C[C@H](Nc2cc(C3CC3)nnc2C(=O)N(CC(C)C)[C@@H]2CNC[C@H](C(=O)N3CCOC[C@@H]3C)C2)C1` [Compound 33, (3S)—{N-(2-methylpropyl), N-{6-cyclopropyl-4-[3-(trans-methoxy)cyclobutyl]amino}pyridazine-3-carbonyl}amino-(5R)-[(3S)-3-methylmorpholine-4-carbonyl]-piperidine], the IC50 was less than 250 nM.

For the molecule `CO[C@H]1C[C@@H](Nc2cc(C3CC3)cnc2C(=O)N(CC(C)C)C2CNCC(C(=O)N3CCOCC3)C2)C1` (stereo partly drawn) [Compound 19, (3S)—{N-(2-methylpropyl), N-{5-cyclopropyl-3-[3-(cis-methoxy)cyclobutyl]amino}pyridine-2-carbonyl}amino-(5R)-(morpholine-N-carbonyl)-piperidine], the IC50 stood at 1.5 nM.

As for `CO[C@H]1C[C@H](Nc2cc(C3CC3)cnc2C(=O)N(CC(C)C)C2CNCC(C(=O)N3CCC(F)(F)CC3)C2)C1` (stereo partly drawn) [Compound 12, (3S)—{N-(2-methylpropyl), N-{5-cyclopropyl-3-[3-(trans-methoxy)cyclobutyl]amino}pyridine-2-carbonyl}amino-(5R)-(4,4-difluoropiperidine-N-carbonyl)-piperidine], the IC50 was 1.6 nM.

These data come from patent US20240327385A1, “SUBSTITUTED PIPERIDINE COMPOUNDS AS RENIN INHIBITORS” (priority 2023, published 2024).
